This data set is described as follows: Pooled metabolic analysis, 6-month study: lipid profile. The text has this: OBJECTIVE: To examine the metabolic effects of bifeprunox in patients with acute and stable schizophrenia.
METHODS: Metabolic data was compiled from one 6-month and four 6-week studies (i.e., a treatment period) of bifeprunox in patients with stable and acute schizophrenia, respectively. In the 6-month study, patients received bifeprunox (n=331) or placebo (PBO) (n=166). […] Metabolic evaluations included body weight, body mass index (BMI), plasma glucose and lipid profiles. Fasting glucose and lipid values were assessed in one 6-week study and in the 6-month study. Triglyceride:HDL ratio (TG:HDL) was calculated as a marker of insulin resistance. No statistical analyses were performed; only descriptive statistics are presented.

The mark [1] stands for this setting: fasting, endpoint, 6-month study, BX total.

From patent publication US20090068290A1, “BIFEPRUNOX DOSES FOR TREATING SCHIZOPHRENIA” (priority 2006, published 2009) come the findings set out here.

For `O=c1[nH]c2cccc(N3CCN(Cc4cccc(-c5ccccc5)c4)CC3)c2o1` [Bifeprunox, 7-[4-([1,1′-biphenyl]-3-ylmethyl)-1-piperazinyl]-2(3H)-benzoxazolone], for the setting “6-month study”, the “change in total cholesterol (TC)” value is -0.31 mmol/L; the “decrease in TG:HDL” value stood at 23%; the “decrease in total cholesterol (TC)” value is reported as 6%; the “total cholesterol and triglycerides (in words)” value is recorded as “reduced to a greater extent with bifeprunox than with placebo”. Under setting [1], the “Fasting HDL, Mean change (SD)” value is reported as 2.9 (9.3) mg/dL; the “Fasting HDL, Percentage mean change” value amounted to 6.2%; the “Total cholesterol, Mean change (SD)” value is −11.6 (29.7) mg/dL; the “Total cholesterol, Percentage mean change” value is −6.4%. Under setting [1], the “Triglyceride:HDL ratio, Mean change (SD)” value is reported as −0.4 (1.0); the “Triglyceride:HDL ratio, Percentage mean change” value is recorded as −23.0%; the “Triglycerides, Mean change (SD)” value is on record as −28.0 (76.0) mg/dL; the “Triglycerides, Percentage mean change” value was −19.4%. Under “in vivo”, the “Fasting LDL, Mean change (SD)” value was −9.7 (27.6) mg/dL and the “Fasting LDL, Percentage mean change” value is on record as −8.6%. Under “over 6-months”, the “change in TG values” was -0.32 mmol/L and the “decrease in TG values” is given as 19%.
